From ChEMBL document CHEMBL3817750, “New hydrazones of 5-nitro-2-furaldehyde with adamantanealkanohydrazides: synthesis and in vitro trypanocidal activity” (Medchemcomm, 2016)

Assays:
Trypanosoma brucei = assay: Trypanocidal activity against bloodstream form of Trypanosoma brucei 427 assessed as reduction in parasitic growth after 48 hrs by Alamar blue assay; format: functional, organism-based; conditions: Trypanosoma brucei, 427, 48 h
[1] = Selectivity index, ratio of IC50 for rat L6 cells to IC50 for epimastigote form of Trypanosoma cruzi CL Brener; format: toxicity, cell-based; conditions: read-out: Ratio IC50
Trypanosoma cruzi = assay: Trypanocidal activity against epimastigote form of Trypanosoma cruzi CL Brener assessed as reduction in parasitic growth after 4 days by Alamar blue assay; format: functional; conditions: 96 h
[2] = Selectivity index, ratio of IC50 for rat L6 cells to IC50 for bloodstream form of Trypanosoma brucei 427; format: toxicity, cell-based; conditions: read-out: Ratio IC50
L6 = assay: Cytotoxicity against rat L6 cells after 6 days by Alamar blue assay; format: cell-based
[3] = Rattus norvegicus, L6, 144 h, read-out: IC50

SMILES: O=C(CC12CC3CC(C1)CC(c1ccccc1)(C3)C2)N/N=C/c1ccc([N+](=O)[O-])o1
- IC50 (Trypanosoma brucei): 221 nM
- IC90 (Trypanosoma brucei): 573 nM
- selectivity ratio [1]: 55
- IC50 (Trypanosoma cruzi): 91 nM
- IC90 (Trypanosoma cruzi): 180 nM
- selectivity ratio [2]: 23
- IC50 (L6; [3]): 5.02 µM

SMILES: O=C(CCC12CC3CC(CC(C3)C1)C2)N/N=C/c1ccc([N+](=O)[O-])o1
- IC50 (Trypanosoma brucei): 386 nM
- IC90 (Trypanosoma brucei): 560 nM
- selectivity ratio [1]: 56
- IC50 (Trypanosoma cruzi): 348 nM
- IC90 (Trypanosoma cruzi): 719 nM
- selectivity ratio [2]: 41
- IC50 (L6; [3]): 16 µM

SMILES: O=C(N/N=C/c1ccco1)C12CC3CC(CC(C3)C1)C2
- IC50 (Trypanosoma brucei): > 35000 nM
- IC90 (Trypanosoma brucei): > 35000 nM
- IC50 (Trypanosoma cruzi): > 35000 nM
- IC90 (Trypanosoma cruzi): > 35000 nM
- IC50 (L6; [3]): > 35 µM

SMILES: O=C(N/N=C/c1ccc([N+](=O)[O-])o1)C12CC3CC(C1)CC(C(=O)N/N=C/c1ccc([N+](=O)[O-])o1)(C3)C2
- IC50 (Trypanosoma brucei): 75 nM
- IC90 (Trypanosoma brucei): 98 nM
- IC50 (Trypanosoma cruzi): > 2000 nM
- IC90 (Trypanosoma cruzi): > 2000 nM
- IC50 (L6; l6): ND(Insoluble)

SMILES: O=C(N/N=C/c1ccc([N+](=O)[O-])o1)C1C2CC3CC(C2)CC1C3 (stereo unspecified)
- IC50 (Trypanosoma brucei): 231 nM
- IC90 (Trypanosoma brucei): 599 nM
- selectivity ratio [1]: 23
- IC50 (Trypanosoma cruzi): 844 nM
- IC90 (Trypanosoma cruzi): 1960 nM
- selectivity ratio [2]: 83
- IC50 (L6; [3]): 19.2 µM

SMILES: CCOC(=O)CC12CC3CC(CC(CC(=O)N/N=C/c4ccc([N+](=O)[O-])o4)(C3)C1)C2
- IC50 (Trypanosoma brucei): 223 nM
- IC90 (Trypanosoma brucei): 643 nM
- selectivity ratio [1]: 32
- IC50 (Trypanosoma cruzi): 204 nM
- IC90 (Trypanosoma cruzi): 478 nM
- selectivity ratio [2]: 34
- IC50 (L6; [3]): 7.49 µM

SMILES: O=C(CC12CC3CC(CC(C3)C1)C2)N/N=C/c1ccco1
- IC50 (Trypanosoma brucei): > 35000 nM
- IC90 (Trypanosoma brucei): > 35000 nM
- IC50 (Trypanosoma cruzi): > 35000 nM
- IC90 (Trypanosoma cruzi): > 35000 nM
- IC50 (L6; [3]): > 35 µM

SMILES: O=C(CC1C2CC3CC(C2)CC1C3)N/N=C/c1ccc([N+](=O)[O-])o1 (stereo unspecified)
- IC50 (Trypanosoma brucei): 126 nM
- IC90 (Trypanosoma brucei): 207 nM
- selectivity ratio [1]: 16
- IC50 (Trypanosoma cruzi): 202 nM
- IC90 (Trypanosoma cruzi): 381 nM
- selectivity ratio [2]: 26
- IC50 (L6; [3]): 3.26 µM

SMILES: O=C(CCC12CC3CC(CC(C3)C1)C2)N/N=C/c1ccco1
- IC50 (Trypanosoma brucei): > 30000 nM
- IC90 (Trypanosoma brucei): > 30000 nM
- IC50 (Trypanosoma cruzi): 6090 nM
- IC90 (Trypanosoma cruzi): 15700 nM
- IC50 (L6; [3]): > 30 µM

SMILES: O=C(CC12CC3CC(C1)CC(C1CCCC1)(C3)C2)N/N=C/c1ccc([N+](=O)[O-])o1
- IC50 (Trypanosoma brucei): 306 nM
- IC90 (Trypanosoma brucei): 459 nM
- selectivity ratio [1]: 49
- IC50 (Trypanosoma cruzi): 178 nM
- IC90 (Trypanosoma cruzi): 329 nM
- selectivity ratio [2]: 29
- IC50 (L6; [3]): 8.79 µM

SMILES: O=C(CCC12CC3CC(C1)CC(c1ccccc1)(C3)C2)N/N=C/c1ccc([N+](=O)[O-])o1
- IC50 (Trypanosoma brucei): 90 nM
- IC90 (Trypanosoma brucei): 167 nM
- selectivity ratio [1]: 17
- IC50 (Trypanosoma cruzi): 238 nM
- IC90 (Trypanosoma cruzi): 654 nM
- selectivity ratio [2]: 51
- IC50 (L6; [3]): 4.59 µM

SMILES: O=C(CCC1C2CC3CC(C2)CC1C3)N/N=C/c1ccc([N+](=O)[O-])o1 (stereo unspecified)
- IC50 (Trypanosoma brucei): 122 nM
- IC90 (Trypanosoma brucei): 177 nM
- selectivity ratio [1]: 12
- IC50 (Trypanosoma cruzi): 206 nM
- IC90 (Trypanosoma cruzi): 513 nM
- selectivity ratio [2]: 20
- IC50 (L6; [3]): 2.38 µM

SMILES: O=C(N/N=C/c1ccc([N+](=O)[O-])o1)C12CC3CC(CC(C3)C1)C2
- IC50 (Trypanosoma brucei): 851 nM
- IC90 (Trypanosoma brucei): 1040 nM
- selectivity ratio [1]: 14
- IC50 (Trypanosoma cruzi): 561 nM
- IC90 (Trypanosoma cruzi): 992 nM
- selectivity ratio [2]: 9
- IC50 (L6; [3]): 7.72 µM

SMILES: O=C(N/N=C/c1ccc([N+](=O)[O-])o1)C12CC3CC(C1)CC(C1CCCC1)(C3)C2
- IC50 (Trypanosoma brucei): 216 nM
- IC90 (Trypanosoma brucei): 425 nM
- selectivity ratio [1]: 49
- IC50 (Trypanosoma cruzi): 225 nM
- IC90 (Trypanosoma cruzi): 528 nM
- selectivity ratio [2]: 51
- IC50 (L6; [3]): 11 µM

SMILES: O=C(CCC12CC3CC(C1)CC(C1CCCC1)(C3)C2)N/N=C/c1ccc([N+](=O)[O-])o1
- IC50 (Trypanosoma brucei): 158 nM
- IC90 (Trypanosoma brucei): 322 nM
- selectivity ratio [1]: 33
- IC50 (Trypanosoma cruzi): 140 nM
- IC90 (Trypanosoma cruzi): 803 nM
- selectivity ratio [2]: 29
- IC50 (L6; [3]): 4.6 µM

SMILES: O=C(CC12CC3CC(CC(C3)C1)C2)N/N=C/c1ccc([N+](=O)[O-])o1
- IC50 (Trypanosoma brucei): 242 nM
- IC90 (Trypanosoma brucei): 553 nM
- selectivity ratio [1]: 15
- IC50 (Trypanosoma cruzi): 205 nM
- IC90 (Trypanosoma cruzi): 568 nM
- selectivity ratio [2]: 13
- IC50 (L6; [3]): 3.17 µM

SMILES: O=C(N/N=C/c1ccc([N+](=O)[O-])o1)C12CC3CC(C1)CC(c1ccccc1)(C3)C2
- IC50 (Trypanosoma brucei): 244 nM
- IC90 (Trypanosoma brucei): 406 nM
- selectivity ratio [1]: 31
- IC50 (Trypanosoma cruzi): 368 nM
- IC90 (Trypanosoma cruzi): 676 nM
- selectivity ratio [2]: 47
- IC50 (L6; [3]): 11.4 µM
